Measured values from US7803382B2, “Method for inducing immune response to NY-CO-58” (Ludwig Institute for Cancer Research Ltd., priority 2001, dated 2010).

What was measured:
[1] = tested on: CD4+ T cells; assay: ELISPOT of peptide-stimulated CD4+ T cells from patients; assay type: cell-based, human; conditions: autologous targets presenting peptide
Protocol: Given the correlation between humoral and cellular immunity observed with CT antigens such as NY-ESO-1 (Jager et al. J Exp Med. 1998 Jan. 19; 187(2):265-70) and SSX2 (Ayyoub et al. J Immunol. 2002 Feb. 15; 168(4):1717-22, Tureci et al. Cancer Res. 1996 Oct. 15; 56(20):4766-72.), these two patients were analyzed to look for the presence of T cell responses. Nine long peptides (30AA) were synthesized from the sequence of NY-CO-58 (SEQ ID NO:20) on the basis of the presence of anchor motifs for various class I molecules. Five prediction algorithms were used to map potential these potential anchor motifs which correspond to potential epitopes, resulting in the selection of the following polypeptides: 3-32 (SEQ ID NO:31), 51-80 (SEQ ID NO:35), 151-180 (SEQ ID NO:36), 271-300 (SEQ ID NO:37), 375-404 (SEQ ID NO:38), 403-432 (SEQ ID NO:33), 510-539 (SEQ ID NO:39), 633-662 (SEQ ID NO:40), and 692-721 (SEQ ID NO:34).
CD8^+ and CD4^+ T cells were then purified from peripheral blood lymphocytes (PBLs) from the two patients and were stimulated with these peptides either individually or in pools of 2-3 peptides (Gnjatic et al. J Immunol. 2003 Feb. 1; 170(3):1191-6). The stimulated CD8^+ T cells were then tested for recognition of the same stimulator peptide(s), either individually or pools in standard ELISPOT assays (Jager Proc Natl Acad Sci USA. 2000 Apr. 25; 97(9):4760-5, Gnjatic et al. Proc Natl Acad Sci USA. 2000 Sep. 26; 97(20):10917-22).
In these same patients CD4^+ T cell responses were investigated. CD4^+ T cells were stimulated with the peptides individually or in pools of 2-3 peptides as done with CD8^+ T cells. The stimulated peptides were tested in ELISPOT assays using autologous targets presenting the stimulator peptide(s). […] Recognition of control autologous targets, either unpulsed cells or cells presenting irrelevant peptide.
An additional sample of PBLs was obtained from patient UKE-16. The patient remained positive for serum NY-CO-58 specific antibody. Again, CD4^+ T cells were stimulated with peptides derived from the NY-CO-58 sequence. This time additional “minimal” 12-mer epitopes selected from within the 30-mer polypeptides using the ProPred prediction algorithm (Singh, H. and Raghava, G. P. S. (2001) ProPred: Prediction of HLA-DR binding sites. Bioinformatics, 17(12), 1236-37, Propred server available online from Drs Raghava and Singh, Bioinformatics Center, Institute of Microbial Technology, Chandigarh, India). The 12-mer peptides corresponded to amino acid 15-26 (SEQ ID NO:32) and 699-710 (SEQ ID NO:41) of NY-CO-58 (SEQ ID NO:20). Analysis of the responses was carried out by ELISPOT assay as before. Peptide 15-26 was recognized by CD4^+ T cells from patient UKE-16 and represents a minimal epitope within amino acid 3-32 (SEQ ID NO:31). This also confirmed that the T cell reactivity was specific to the peptides and not due to an irrelevant contaminant, which would be unlikely to be present within two separate batches of synthetic peptides.

[2] = tested on: splenocytes; assay type: cell-based, HHD mice
[3] = tested on: peripheral blood lymphocytes; assay type: cell-based, HHD mice
[4] = tested on: sera from colon cancer patients; assay: Spot assay: reactivity of serologically defined colon cancer antigens with colon cancer patient sera; assay type: binding, human; conditions: reactive sera/sera tested; includes autologous where applicable; sera 1:200
Protocol: Serum samples from patients with colon cancer were screened using a modification of the plaque assay, termed a spot assay. In this method, 80×120 mm nitrocellulose membranes were precoated with a film of NZY/0.7% Agarose/2.5 mM IPTG and placed on a reservoir layer of NZY/0.7% Agarose in a 86×128 mm Omni Tray (Nalge Nunc International Corp., Naperville, Ill.). Approximately 1.0×10^5 pfU of monoclonal phage encoding individual serologically defined colon cancer antigens, in a volume of 20 μl, were mixed with 20 μl of exponentially growing E. coli XL-1 Blue MRF and spotted (0.7-μl aliquots) on the precoated nitrocellulose membranes. Membranes were incubated for 15 hours at 37° C. A total of 75 different serologically defined colon cancer antigens were spotted in duplicate per nitrocellulose membrane. The agarose film was then removed from the membrane and the filters were processed for reactivity with individual serum samples (1:200 dilution), as described in Scanlan, et al., Int. J. Cancer 76:652-658 (1998) and Scanlan, et al., Int. J. Cancer 83:456-64, (1999).

Substance	CD4+ T cell response, ELISPOT ([1]; patient UKE-1)	CD4+ T cell response, ELISPOT ([1]; patient UKE-16)	ELISPOT response after in vitro restimulation [2]	ex vivo ELISPOT response from PBL [3]	further results
MDSSLQARLFPGLAIKIQRSNGLIHSANVR (listed as Homo sapiens) [3-32]	reactive	reacted very clearly	–	–	–
KLGLEVYVT (listed as Homo sapiens)	–	–	responses were detected	not seen	–
EIYNGKLFDLLNKKAKLRVLEDGKQQVQVV (listed as Homo sapiens) [peptide 403-432, fragment of NY-CO-58, residues 403-432]	responded	–	–	–	–
SLLALKECI (listed as Homo sapiens)	–	–	confirmed	showed a response	–
KHFSALRDVIKALRLAMQLEEQASRQISSK (listed as Homo sapiens) [692-721, fragment of NY-CO-58, residues 692-721]	reactive	reacted very clearly	–	–	–
LAIKIQRSNGLI (listed as Homo sapiens) [peptide 15-26, minimal 12-mer of NY-CO-58, residues 15-26]	–	recognized	–	–	–
NLEKSCVSV (listed as Homo sapiens)	–	–	responses were detected	not seen	–
CO-95 (KIAA1416): serologically defined colon cancer antigen, protein SEQ ID NO:16	–	–	–	–	Reactivity of individual antigens [4]: 4/75
LQARLFPGL (listed as Homo sapiens)	–	–	responses were detected	not seen	–
